Assay [1] has as its target T1, gastrin (CCK2) receptors (Rattus norvegicus, UniProt P30553).
T1 construct: The stomach was excised and flushed with ca. 1 ml of unbuffered physiological saline solution; from tissue; host or cells: isolated lumen-perfused stomach of immature rats (ca. 21 days old)
T1 sequence (P30553 1-452): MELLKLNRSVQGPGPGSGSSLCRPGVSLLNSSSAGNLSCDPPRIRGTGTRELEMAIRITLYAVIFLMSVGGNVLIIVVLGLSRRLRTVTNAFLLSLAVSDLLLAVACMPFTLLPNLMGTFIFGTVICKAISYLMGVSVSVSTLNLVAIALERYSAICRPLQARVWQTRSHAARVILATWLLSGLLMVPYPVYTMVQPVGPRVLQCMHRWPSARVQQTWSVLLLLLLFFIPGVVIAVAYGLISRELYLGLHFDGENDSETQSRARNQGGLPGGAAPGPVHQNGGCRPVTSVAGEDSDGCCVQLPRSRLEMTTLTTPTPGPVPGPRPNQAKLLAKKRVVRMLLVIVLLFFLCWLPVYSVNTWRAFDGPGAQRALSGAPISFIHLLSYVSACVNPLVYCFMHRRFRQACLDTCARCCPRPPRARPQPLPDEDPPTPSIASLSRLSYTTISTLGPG
Put plainly: immature rat stomach assay, gastrin (CCK2) antagonist activity. The format is cell-based. The following applies: pentagastrin dose-response curves, acid secretion. On the procedure: The compounds of the examples were tested for gastrin (CCK2) antagonist activity in an immature rat stomach assay. The procedure was as follows:
The oesophagus of immature rats (33-50 g, ca. 21 days old) was ligated at the level of the cardiac sphincter and the duodenal sphincter was cannulated. The stomach was excised and flushed with ca. 1 ml of unbuffered physiological saline solution. The fundus was punctured and cannulated. A further 4-5 ml of unbuffered solution was flushed through the stomach to ensure the preparation was not leaking. […] The stomach was continuously perfused at a rate of 1 ml min^−1 with unbuffered solution gassed with 100% O2 with the perfusate passing over an internally referenced pH-electrode fixed 12 cm above the stomach.
After 120 min of stabilisation the drugs were added directly to the serosal solution in the organ bath and after a further 60 min cumulative pentagastrin dose-response curves were started.

Assay [2] concerns the target T2, human gastrin (CCK2) receptors (Homo sapiens, UniProt P32239).
T2 construct: amplified by PCR (polymerase chain reaction) from the start codon to the stop codon; expressed in transfected cells
T2 sequence (P32239 1-447): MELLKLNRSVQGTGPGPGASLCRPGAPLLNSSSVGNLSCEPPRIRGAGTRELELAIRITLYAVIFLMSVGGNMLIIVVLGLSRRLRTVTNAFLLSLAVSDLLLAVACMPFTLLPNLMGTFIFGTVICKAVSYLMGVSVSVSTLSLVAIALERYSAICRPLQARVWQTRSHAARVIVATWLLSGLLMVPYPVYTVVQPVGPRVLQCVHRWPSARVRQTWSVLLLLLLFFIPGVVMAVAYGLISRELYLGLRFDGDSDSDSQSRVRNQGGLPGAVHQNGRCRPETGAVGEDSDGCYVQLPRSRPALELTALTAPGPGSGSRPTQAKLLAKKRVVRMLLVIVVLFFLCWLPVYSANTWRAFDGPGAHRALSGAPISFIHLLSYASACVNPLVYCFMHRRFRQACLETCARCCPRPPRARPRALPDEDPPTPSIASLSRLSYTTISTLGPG
Description: [125I]-BH-CCK-8S competition binding at human CCK2 receptors cloned into NIH3T3 cells. The following applies: hCCK2 receptor, NIH3T3 clone 7 membranes, [125I]-BH-CCK-8S 200 pM, 150 min at 21° C.
Description: Step a: Subcloning of IMAGE Clone Encoding the Human CCK2R into a Mammalian Expression Vector
I.M.A.G.E. (Integrated Molecular Analysis of Genomes and their Expression) clone number 3504160 (Lennon et al. Genomics 33, 151-152 (1996)) was purchased from the HGMP (Human Genome Mapping Project, Cambridge). The cDNA encoding the mRNA for the human CCK2R, corresponding to accession number BC000740, was present in vector pOTB7 in host cell DH10B. The cells, initially streaked on to LB-Agar plates containing 20 μg/ml chloramphenicol, were then grown in LB containing 20 μg/ml chloramphenicol with shaking at 37° C. according to standard techniques (Current Protocols in Molecular Biology, Wiley). DNA was prepared using the QIAGEN® EndoFree™ plasmid Maxi kit (Qiagen Ltd.) according to the manufacturer's protocol. The DNA was then amplified by PCR (polymerase chain reaction) from the start codon to the stop codon using primers containing restriction sites, Eco R1 and Xba I respectively, to facilitate uni-directional cloning. […]
The PCR product was purified using the QIAGEN® MinElute™ PCR purification kit, according to the manufacturer's instructions. […] The digested DNA bands of the correct size, analysed by ethidium bromide stained agarose/TBE gels, were excised and purified using QIAGEN@ MinElute™ gel extraction kit, according to the manufacturer's instructions. […]

3 compounds from patent publication US20060003993A1, “Benzotriazepnes as gastrin and cholecystokinin receptor ligands” (James Black Foundation Limited, priority 2001, published 2006) can be followed below.

SMILES strings stand for the structures.

As for `CNc1cc(NC(=O)CN2N=C(C3CCCCC3)c3ccccc3N(CC(O)C(C)(C)C)C2=O)cc(C(=O)OC)c1` (stereo not drawn) [Example 78], the pKB rat stomach in assay [1] came out at 6.49 ± 0.33.

Compound `Cc1cccc2c1C(C1CCCCC1)=NN(CC(=O)Nc1cccc(C(=O)O)c1)C(=O)N2CC(=O)C(C)(C)C` [Example 114] came in with a pKB rat stomach in assay [1] of 7.45 ± 0.43.

Turning to `Cc1cccc(NC(=O)N[C@@H]2N=C(c3ccccc3)c3ccccc3N(CC(=O)c3ccccc3C)C2=O)c1` [YM022], the “pKi ± s.e.mean” value in assay [2] stood at 10.19 ± 0.03.
